Molecules are shown by their SMILES. Residues, ends and D or L forms follow the SMILES beside them.

Series [1] concerns HMC3 cells. In words: Aβ degradation assay in HMC3 cells with exocytosis inhibitor GW4869. Type of series: cell-based, human. The conditions noted are these: Aβ 1 µM 1 h, wash, then 3 h with 10 µM GW4869 ± 30 µM HAEE, ELISA, n = 3. How it is done:
HMC3 cells were treated with 1 µM Aβ in serum-free culture medium for 1 h to allow for peptide internalization. Cells were then washed to remove extracellular Aβ. […] Aβ released into the cell culture medium during the degradation phase was also quantified by ELISA.
In general terms: ELISA stands for enzyme-linked immunosorbent assay.

Another series deals with T1, Aβ (Homo sapiens, UniProt P05067).
T1 construct: purchased Peptide Specialty Laboratories GmbH; host or cells: synthetic peptide
T1 sequence (P05067 672-713): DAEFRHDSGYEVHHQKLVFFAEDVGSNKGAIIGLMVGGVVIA
In words: Aβ level in mouse brain tissue after i.c.v. oligomeric Aβ and HAEE (ELISA). Format: in vivo. The conditions noted are these: C57BL/6 mice, HAEE 100 µM 1 μL i.c.v. days 1-3, n = 8. The method, then: (§1) After a recovery period, mice were randomly divided into two experimental groups using online GraphPad random number generator (Figure 1A, n = 8 per group): 1. The Aβ group received oligomeric Aβ and vehicle solution (ACSF). 2. The Aβ + HAEE group received oligomeric Aβ and the synthetic tetrapeptide HAEE (100 µM). The group allocation was unknown to the researchers who performed the neurosurgical procedures and ELISA.
(§2) On day 1, all mice received an intracerebroventricular (i.c.v.) injection of oligomeric Aβ (1 μL). Immediately after, mice received the first i.c.v. injection of either HAEE (1 μL) or ACSF (1 μL). Injections were repeated on days 2 and 3 (HAEE or ACSF only). All injections were performed on awake, freely moving mice through the guide cannula at a rate of 1 μL/min. […]
(§3) Aβ levels in the brain and cell lysates were measured by sandwich ELISA using BAM113cc capture antibodies (50 ng/well, HyTest, Moscow, Russia) and peroxidase-labeled BAM7cc antibodies (100 ng/well, HyTest, Moscow, Russia) as described in [46]. Aβ level was normalized to the protein concentration in the samples, measured using a Pierce™ BCA Protein Assay Kit (Thermo Fisher Scientific, Waltham, MA, USA). The rate of Aβ degradation was calculated as the difference in normalized Aβ level in the cells between the 48-hour and 24-hour time points divided by 24 h. […]

In another series the test system is IL-6. As to the kind of experiment: IL-6 level in mouse brain tissue after i.c.v. oligomeric Aβ and HAEE (ELISA). Type of series: in vivo. Particulars: C57BL/6 mice; i.c.v. oligomeric Aβ day 1; HAEE 100 µM 1 μL i.c.v. days 1-3; ELISA of brain homogenate; vs Aβ + ACSF; n = 8. How it is done: IL-6 and TNFα in all samples were assessed using commercial ELISA kits (IL-6 Mouse Uncoated ELISA Kit, Mouse TNF alpha Uncoated ELISA Kit, Thermo Fisher Scientific, Waltham, MA, USA) according to the manufacturer’s instructions.

The subject of the next series is TNFα. In words: TNFα level in mouse brain tissue after i.c.v. oligomeric Aβ and HAEE (ELISA). The conditions noted are these: C57BL/6 mice; i.c.v. oligomeric Aβ day 1; HAEE 100 µM 1 μL i.c.v. days 1-3; ELISA of brain homogenate; n = 8. Format: in vivo. The method, then:
as §1, §2, §3

The next series deals with bEnd.3 cells. In words: BBB transwell model: Aβ passage through bEnd.3 monolayer. Type of series: cell-based, mouse. Particulars: transwell 0.4 μm, Aβ 100 nM, HAEE 20 μM in abluminal compartment, serum-free DMEM, 37 °C, 24 h, ELISA, n = 5.
The target of the next series is T2, LRP1 (Mus musculus, UniProt Q91ZX7).
T2 construct: endogenous in cells; host or cells: bEnd.3
T2 sequence (Q91ZX7 20-4545): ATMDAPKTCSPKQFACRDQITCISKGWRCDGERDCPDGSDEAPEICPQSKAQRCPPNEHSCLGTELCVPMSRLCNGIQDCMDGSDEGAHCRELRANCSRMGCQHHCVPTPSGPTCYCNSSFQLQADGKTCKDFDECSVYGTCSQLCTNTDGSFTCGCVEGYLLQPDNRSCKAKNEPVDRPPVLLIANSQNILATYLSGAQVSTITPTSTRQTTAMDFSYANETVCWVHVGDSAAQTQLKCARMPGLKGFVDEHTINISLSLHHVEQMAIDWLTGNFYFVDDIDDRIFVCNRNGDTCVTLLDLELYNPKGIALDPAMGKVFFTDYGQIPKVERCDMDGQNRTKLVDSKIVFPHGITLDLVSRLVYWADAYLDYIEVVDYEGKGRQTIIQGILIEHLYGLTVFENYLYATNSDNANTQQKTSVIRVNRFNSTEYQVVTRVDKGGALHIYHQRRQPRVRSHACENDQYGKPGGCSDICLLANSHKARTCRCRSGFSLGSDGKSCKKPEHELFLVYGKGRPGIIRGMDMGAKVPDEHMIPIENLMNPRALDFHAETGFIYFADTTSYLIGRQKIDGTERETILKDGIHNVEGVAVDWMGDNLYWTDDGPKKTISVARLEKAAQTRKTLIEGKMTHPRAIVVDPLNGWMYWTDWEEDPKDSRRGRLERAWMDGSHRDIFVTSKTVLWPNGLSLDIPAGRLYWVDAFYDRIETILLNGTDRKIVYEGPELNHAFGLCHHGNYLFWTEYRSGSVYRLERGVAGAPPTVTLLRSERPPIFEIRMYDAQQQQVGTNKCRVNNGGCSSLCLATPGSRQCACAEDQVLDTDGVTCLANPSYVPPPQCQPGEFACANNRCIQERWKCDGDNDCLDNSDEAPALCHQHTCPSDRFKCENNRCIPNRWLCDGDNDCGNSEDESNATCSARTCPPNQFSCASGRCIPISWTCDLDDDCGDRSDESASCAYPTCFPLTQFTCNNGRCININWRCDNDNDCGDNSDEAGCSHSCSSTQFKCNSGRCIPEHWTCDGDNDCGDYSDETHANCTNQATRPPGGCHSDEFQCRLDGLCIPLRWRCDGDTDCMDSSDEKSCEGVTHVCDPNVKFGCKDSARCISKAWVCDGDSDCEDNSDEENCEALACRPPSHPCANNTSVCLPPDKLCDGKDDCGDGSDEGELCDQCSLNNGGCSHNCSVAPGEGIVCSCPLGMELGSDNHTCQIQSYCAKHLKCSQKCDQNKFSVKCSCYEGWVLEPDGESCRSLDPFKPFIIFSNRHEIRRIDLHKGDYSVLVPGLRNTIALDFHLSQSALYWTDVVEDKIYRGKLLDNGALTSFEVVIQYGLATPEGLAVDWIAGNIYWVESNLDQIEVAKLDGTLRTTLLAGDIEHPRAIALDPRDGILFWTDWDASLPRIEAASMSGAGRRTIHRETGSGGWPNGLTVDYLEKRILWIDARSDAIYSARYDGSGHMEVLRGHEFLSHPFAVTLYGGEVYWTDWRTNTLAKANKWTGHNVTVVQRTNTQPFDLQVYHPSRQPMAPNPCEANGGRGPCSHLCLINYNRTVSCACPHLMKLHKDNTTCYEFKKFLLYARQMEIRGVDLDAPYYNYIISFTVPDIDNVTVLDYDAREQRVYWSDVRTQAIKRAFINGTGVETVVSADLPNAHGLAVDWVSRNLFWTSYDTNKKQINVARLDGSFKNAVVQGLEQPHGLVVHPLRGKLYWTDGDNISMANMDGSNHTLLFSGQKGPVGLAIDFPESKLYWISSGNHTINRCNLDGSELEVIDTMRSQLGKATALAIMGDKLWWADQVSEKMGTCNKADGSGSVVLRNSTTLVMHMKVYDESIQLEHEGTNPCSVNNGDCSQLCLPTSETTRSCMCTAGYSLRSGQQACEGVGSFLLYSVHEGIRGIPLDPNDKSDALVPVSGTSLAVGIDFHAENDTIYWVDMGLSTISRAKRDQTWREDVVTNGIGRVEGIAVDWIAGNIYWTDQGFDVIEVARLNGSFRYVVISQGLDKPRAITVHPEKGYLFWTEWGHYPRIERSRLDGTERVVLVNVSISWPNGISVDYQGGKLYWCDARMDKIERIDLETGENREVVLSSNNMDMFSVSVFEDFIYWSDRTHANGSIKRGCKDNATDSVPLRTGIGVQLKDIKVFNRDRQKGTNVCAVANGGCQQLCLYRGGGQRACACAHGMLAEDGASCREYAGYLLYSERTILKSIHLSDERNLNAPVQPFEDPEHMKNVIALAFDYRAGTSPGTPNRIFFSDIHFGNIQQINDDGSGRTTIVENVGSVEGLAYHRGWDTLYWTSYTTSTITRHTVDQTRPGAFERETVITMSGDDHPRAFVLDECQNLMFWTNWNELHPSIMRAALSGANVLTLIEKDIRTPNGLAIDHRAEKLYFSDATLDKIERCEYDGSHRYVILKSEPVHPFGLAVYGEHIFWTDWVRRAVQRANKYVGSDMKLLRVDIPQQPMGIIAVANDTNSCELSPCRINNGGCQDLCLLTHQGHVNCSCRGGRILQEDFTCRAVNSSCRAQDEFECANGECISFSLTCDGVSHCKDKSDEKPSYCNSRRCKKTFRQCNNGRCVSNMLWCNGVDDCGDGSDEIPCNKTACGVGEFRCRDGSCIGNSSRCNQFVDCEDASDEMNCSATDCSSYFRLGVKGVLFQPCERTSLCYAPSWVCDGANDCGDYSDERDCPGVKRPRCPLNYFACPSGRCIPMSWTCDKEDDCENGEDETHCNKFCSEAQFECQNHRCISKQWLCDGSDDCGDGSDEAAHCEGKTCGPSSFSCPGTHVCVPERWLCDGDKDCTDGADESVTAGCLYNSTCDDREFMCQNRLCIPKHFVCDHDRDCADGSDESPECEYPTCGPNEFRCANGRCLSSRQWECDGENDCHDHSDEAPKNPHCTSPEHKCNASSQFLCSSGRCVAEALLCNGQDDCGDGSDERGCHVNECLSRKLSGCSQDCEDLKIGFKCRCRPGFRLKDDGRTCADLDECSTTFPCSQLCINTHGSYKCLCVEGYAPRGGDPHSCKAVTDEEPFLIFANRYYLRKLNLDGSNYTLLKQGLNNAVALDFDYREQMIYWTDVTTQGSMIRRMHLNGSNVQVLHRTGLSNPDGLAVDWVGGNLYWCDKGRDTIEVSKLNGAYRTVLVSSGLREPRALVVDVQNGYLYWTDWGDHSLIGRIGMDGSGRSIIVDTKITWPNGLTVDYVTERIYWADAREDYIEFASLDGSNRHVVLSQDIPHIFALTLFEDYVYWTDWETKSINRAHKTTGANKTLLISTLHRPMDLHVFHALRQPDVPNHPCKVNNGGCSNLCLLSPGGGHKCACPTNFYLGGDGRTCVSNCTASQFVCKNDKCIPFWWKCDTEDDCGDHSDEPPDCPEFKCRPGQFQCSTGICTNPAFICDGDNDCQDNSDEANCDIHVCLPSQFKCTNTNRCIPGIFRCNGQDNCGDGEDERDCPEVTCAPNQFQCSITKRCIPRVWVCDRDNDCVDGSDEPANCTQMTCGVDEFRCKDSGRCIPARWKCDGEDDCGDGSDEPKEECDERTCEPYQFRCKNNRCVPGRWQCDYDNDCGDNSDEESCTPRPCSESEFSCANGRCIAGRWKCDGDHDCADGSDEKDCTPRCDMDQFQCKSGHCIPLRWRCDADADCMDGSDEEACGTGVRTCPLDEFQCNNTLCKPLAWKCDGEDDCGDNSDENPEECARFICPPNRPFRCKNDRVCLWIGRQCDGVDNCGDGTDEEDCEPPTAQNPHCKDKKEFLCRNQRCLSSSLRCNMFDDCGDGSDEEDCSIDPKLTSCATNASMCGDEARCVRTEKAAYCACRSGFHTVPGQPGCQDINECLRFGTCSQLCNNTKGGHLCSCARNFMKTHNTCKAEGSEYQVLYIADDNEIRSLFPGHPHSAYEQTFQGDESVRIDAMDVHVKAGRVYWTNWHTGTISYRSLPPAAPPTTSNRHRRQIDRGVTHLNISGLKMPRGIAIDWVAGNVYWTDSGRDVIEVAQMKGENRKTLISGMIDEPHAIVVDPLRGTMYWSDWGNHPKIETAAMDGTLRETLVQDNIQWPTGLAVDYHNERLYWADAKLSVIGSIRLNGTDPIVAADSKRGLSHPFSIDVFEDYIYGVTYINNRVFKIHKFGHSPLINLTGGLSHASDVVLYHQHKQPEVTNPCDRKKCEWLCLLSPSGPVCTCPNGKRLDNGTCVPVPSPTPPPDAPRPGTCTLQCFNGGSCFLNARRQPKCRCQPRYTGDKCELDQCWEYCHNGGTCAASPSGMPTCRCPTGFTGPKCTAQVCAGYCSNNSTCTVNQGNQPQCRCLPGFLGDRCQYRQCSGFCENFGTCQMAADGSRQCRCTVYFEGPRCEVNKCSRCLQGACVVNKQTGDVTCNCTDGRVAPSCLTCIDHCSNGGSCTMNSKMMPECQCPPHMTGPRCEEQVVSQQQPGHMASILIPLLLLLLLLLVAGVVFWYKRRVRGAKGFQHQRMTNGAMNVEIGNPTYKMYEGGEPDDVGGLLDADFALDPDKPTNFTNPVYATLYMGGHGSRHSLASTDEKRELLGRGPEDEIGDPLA
As to the kind of experiment: Inhibitory assay: blocking antibody to LRP1, Aβ level in bEnd.3 cells. Type of series: cell-based. The conditions noted are these: blocking antibody 10 μg/mL 1 h, Aβ 100 nM + HAEE 20 μM, 2 h, ELISA, n = 3–4.

The subject of series [2] is mixed primary culture of mouse brain cells. As to the kind of experiment: Aβ uptake and clearance in mixed primary culture of brain cells (ELISA). Type of series: cell-based, C57BL/6 mouse. The conditions noted are these: Aβ 1 µM, HAEE 30 µM, n = 4.
The subject of series [3] is primary astrocyte culture. As to the kind of experiment: Aβ uptake and clearance in primary astrocyte culture (ELISA). Format: cell-based, C57BL/6 mouse. The conditions noted are these: Aβ 1 µM, HAEE 30 µM, n = 4.
The test system of the next series is HMC3 microglial cells. In words: Aβ uptake and clearance in HMC3 microglial cells (ELISA). Type of series: cell-based, human. The conditions noted are these: Aβ 1 µM, HAEE 30 µM, n = 6.
The test system of series [4] is HMC3 cells. As to the kind of experiment: Lysosomal staining of HMC3 cells with LysoTracker Red DND-99. The conditions noted are these: Aβ 1 μM + HAEE 30 μM, 24 h, 10 cells per field, n = 3. Type of series: cell-based, human.
Method: Two hours prior to the completion of the incubation period, LysoTracker Red DND-99 (Thermo Fisher Scientific, Waltham, MA, USA) was added to the culture medium at a final concentration of 50 nM to label acidic compartments, including active lysosomes. Immediately before live-cell imaging, cell nuclei were counterstained with NucBlue Live Cell Stain (Thermo Fisher Scientific, Waltham, MA, USA) according to the manufacturer’s instructions. Fluorescent images were acquired using a Nikon Eclipse Ni-U (Nikon Corp., Tokyo, Japan) microscope with appropriate filter sets.
The target in series [5] is T3, Aβ oligomers (Homo sapiens, UniProt P05067).
T3 construct: purchased Peptide Specialty Laboratories GmbH; host or cells: synthetic peptide
T3 sequence (P05067 672-713): as the sequence (P05067 672-713) above
In words: Dynamic light scattering of Aβ oligomers. Type of series: physicochemical. Particulars: Aβ 50 µM in PBS, 24 h 37 °C, then HAEE 500 µM for additional 24 h 37 °C; measured at 25 °C; triplicate. The method, then: The size distribution of Aβ oligomers was characterized by DLS using a Zetasizer Nano ZS instrument (Malvern Panalytical, Malvern, UK). Oligomeric Aβ was prepared as described in Section 4.6 and further incubated at a concentration of 50 µM in PBS for 24 h at 37 °C to promote oligomerization. To assess the effect of HAEE, the peptide was added to the pre-formed Aβ oligomers at a final concentration of 500 µM (dissolved in PBS), and the mixture was incubated for an additional 24 h at 37 °C. A control sample containing Aβ without HAEE was processed in parallel under identical conditions. Immediately prior to analysis, samples were briefly centrifuged to sediment any large aggregates and transferred to a disposable polystyrene cuvette (Sarstedt, Nümbrecht, Germany). Measurements were performed at 25 °C, and the hydrodynamic diameter (reported as Z-average) and polydispersity index (PDI) were derived from the correlation function using the Zetasizer Software version 7.13 (Malvern Panalytical, Malvern, UK). Each sample was measured in triplicate.

In series [6] the target is T3, Aβ oligomers. As to the kind of experiment: Oligomer-specific ELISA of Aβ. Format: biochemical. Particulars: pre-formed Aβ oligomers in the presence vs absence of HAEE; BAM7cc capture and detection. The method, then:
To measure Aβ oligomers using ELISA, two antibodies (a capture antibody and a detector antibody) targeting the same epitope are used. This method therefore allows for the detection of predominantly oligomeric forms of Aβ, which have epitopes available for binding to both the detection antibody and the capture antibody.
BAM7cc antibodies (HyTest, Moscow, Russia), which recognize the N-terminus of Aβ, were added to a 96-well ELISA plate (Wuxi NEST Biotechnology, Wuxi, China) in a volume of 100 μL (0.5 ng/μL) and incubated overnight at +4 °C. The wells of the plate were washed 3 times with 300 μL of PBST (0.05% Tween20) and blocked in 1% BSA (Diaem, Moscow, Russia) in PBST at room temperature and shaken for 1 h. The plate was then washed three times with 300 μL of PBST, and samples were added at a volume of 100 μL per well. The plates were incubated for 2 h at room temperature with shaking, washed 3 times with 300 μL of PBST, and HRP-conjugated BAM7cc antibodies (HyTest, Moscow, Russia) were added at a volume of 100 μL per well (1 ng/μL). The plates were incubated for 1 hour at room temperature with shaking, washed 5 times with 300 μL of PBST, and analyzed using TMB (Diaem, Moscow, Russia). Absorbance was measured at 450 nm using a Multiskan FC Microplate Photometer (Thermo Fisher Scientific, Waltham, MA, USA).

The test system of series [7] is HMC3 cells. In words: IL-6 level in HMC3 supernatant (ELISA). Format: cell-based, human. Particulars: Aβ 1 µM + HAEE 30 µM, 24 h, n = 3.
From the text: Subsequently, cells were frozen in liquid nitrogen.
Series [8] relates to HMC3 cells. In words: Intracellular ROS and GSH in HMC3 cells by flow cytometry. The conditions noted are these: Aβ + HAEE, 24 h. Type of series: cell-based, human.
Method: The cells were stained with dihydrorhodamine 123 (Ex/Em = 507/525 nm) or monobromobimane (Ex/Em = 395/495 nm) according to ThermoFisher Scientific’s instructions. One minute prior to analysis, 10 μg/mL of propidium iodide (Ex/Em = 535/617 nm, Sigma, St. Louis, MO, USA) was added to the cell samples to evaluate the number of dead cells in the population. The analysis was performed using a BD LSR Fortessa flow cytometer (Becton Dickinson, Franklin Lakes, NJ, USA) and FlowJo^TM Software v.10.8.1 (Becton Dickinson, Franklin Lakes, NJ, USA).
The conditions of series [9]: cited from earlier work. From the text: ApoE4 is the primary genetic risk factor for the sporadic form of AD. Unlike other ApoE isoforms, ApoE4 impairs TREM2-dependent microglial phagocytosis, promotes microglial activation, and contributes to chronic neuroinflammation in AD [41, 42].
Series [10] has as its system nicotinic α4β2 acetylcholine receptors. Also noted: method as in PMID 34207317. The conditions noted are these: cited from earlier work.
Series [11] has as its system zinc-induced Aβ oligomers. Also noted: method as in PMID 32872553, PMID 21081056. The conditions noted are these: binds to Aβ at the 11EVHH14 site; cited from earlier work.

Method for LRP1: Cells were incubated with blocking antibodies to LRP or Pgp receptors (10 μg/mL, Santa Cruz Biotechnology, Dallas, TX, USA) for 1 h at +37 °C. […] After 2 h, the cells were washed 3 times with PBS, frozen in liquid nitrogen, and lysed in IP lysis buffer (ServiceBio, Wuhan, China) with the addition of a protease inhibitor (Thermo Fisher Scientific, Waltham, MA, USA) for 1 h at +4 °C with stirring. The cell lysate was centrifuged at 16,000× g, +4 °C, 10 min and the supernatant was collected. The amount of total protein in the lysates was determined using a BCA assay kit (Sigma-Aldrich, St. Louis, MO, USA) according to the manufacturer’s protocol.

With `O=C(/C=C/c1ccc(/C=C/C(=O)Nc2ccc(C3=NCCN3)cc2)cc1)Nc1ccc(C2=NCCN2)cc1` [GW4869, reference compound], the “effect of GW4869 on HAEE-dependent Aβ clearance in microglial cells” value with HMC3 cells [1] is on record as “did not prevent the effect of HAEE”.

With `CC(=O)N[C@@H](Cc1c[nH]cn1)C(=O)N[C@@H](C)C(=O)N[C@@H](CCC(=O)O)C(=O)N[C@@H](CCC(=O)O)C(N)=O` [HAEE, Acetyl-HAEE-Amide] (Ac-HAEE-NH2), at Aβ (8-month-old, i.c.v. oligomeric Aβ 1 μL day 1, brain lysate ELISA 30 min after final injection, vs Aβ + ACSF), the “reduction of Aβ level in mouse brain tissue” value worked out at 35%. The “Aβ level in the brain of mice treated with HAEE compared to animals that did not receive the tetrapeptide” value on Aβ (i.c.v. oligomeric Aβ day 1, ELISA) is on record as “reliably reduced”. Moreover, the “decrease in IL-6 levels in mouse brain tissue” value in the series on IL-6 came to 40%. Besides, in the series with TNFα, the “effect on TNFα levels in mouse brain tissue” value was “no effect”. Besides, the “rate of Aβ passage across the BBB from abluminal to luminal compartment” value in the series with bEnd.3 cells is on record as “significantly increased”. Further, the “reduction of Aβ uptake by endothelial cells on blocking LRP1, in the presence of HAEE” value on LRP1 amounted to 30%. Also, the “effect on Aβ clearance by the cells at 24–48 h” value in series [2] (clearance rate = difference of Aβ level 48 h vs 24 h divided by 24 h) is listed as “notably accelerated”. Besides, the “effect on intracellular Aβ level at 4–24 h” value in series [2] (medium without FBS, ELISA) is listed as “did not significantly affect”. For the same compound, the “effect on the rate of Aβ clearance” value in series [3] (24–48 h period) is recorded as “did not affect”. Moreover, in series [3] (ELISA), the “level of intracellular Aβ after 24–48 h of incubation compared to cells treated with Aβ alone” value is reported as “decreased”. Moreover, the “rate of Aβ clearance” value with HMC3 microglial cells (24–48 h period) is on record as “doubled”. Moreover, the “amount of intracellular Aβ after 24 h and 48 h of incubation compared to cells not treated with HAEE” value with HMC3 microglial cells (ELISA) was “significantly reduced”. Further, the “effect on Aβ-induced changes in lysosomes (size and number)” value in the series on HMC3 cells [4] was “completely abolished”. The “reduction of intracellular Aβ level, HAEE + GW4869 compared to GW4869 alone” value in the series on HMC3 cells [1] came out at 40%. The “average size of Aβ oligomers (DLS)” value at Aβ oligomers [5] is on record as “reduced their average size”. Moreover, on Aβ oligomers [6], the “amount of Aβ oligomers (oligomer-specific ELISA)” value is on record as “reduced the amount of Aβ oligomers”. Also, the “effect on Aβ-induced increase in IL-6 level” value in the series on HMC3 cells [7] is listed as “effectively inhibited”. Besides, in the series with HMC3 cells [8] (dihydrorhodamine 123, n = 4), the “effect on Aβ-induced change in reactive oxygen species (ROS) level” value was “completely prevented”. Further, in the series with HMC3 cells [8] (monobromobimane, n = 4), the “effect on Aβ-induced change in reduced glutathione (GSH) level” value is reported as “completely prevented”. Further, in [9], the toxicity entry is “non-toxic”. For the same compound, in [10], the “effect on the inhibitory effect of Aβ42 on nicotinic α4β2 acetylcholine receptors” value is given as “completely abolishes”. Also, in series [11], the “formation of toxic, zinc-induced Aβ oligomers” value is reported as “blocks”.

The values above are taken from PMC12692722, “The Tetrapeptide HAEE Promotes Amyloid-Beta Clearance from the Brain” (International Journal of Molecular Sciences, 2025).
